# Data from PubChem BioAssay (NCI).
#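 Tested at 5 concentrations; 48 h exposure; 96-well plates; endpoints linearly interpolated, else capped at highest concentration. The concentration for 50% growth inhibition is given as GI50. The concentration for full growth arrest is given as TGI.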 Where a SMILES comes first, the peptide text is derived from it. [ ]: non-standard residue; d: D form. pGlu = O=C1CC[CH](C(=O)O)N1
# What was measured:
# Experiment in all cases: DTP human tumour cell line panel, 48 h
# BT-549 breast = test system: BT-549 breast
# MDA-MB-231 breast = test system: MDA-MB-231 breast
# MDA-MB-435 = test system: MDA-MB-435
# MOLT-4 leukemia = test system: MOLT-4 leukemia
# OVCAR-8 ovarian = test system: OVCAR-8 ovarian
# RPMI-8226 leukemia = test system: RPMI-8226 leukemia
# SK-MEL-28 melanoma = test system: SK-MEL-28 melanoma
# SK-MEL-5 melanoma = test system: SK-MEL-5 melanoma
# UACC-257 melanoma = test system: UACC-257 melanoma
# PC-3 prostate = test system: PC-3 prostate
# SN12C renal = test system: SN12C renal
smiles,measurement,setting,value
CCOC(=O)C12CCC(=O)N1N(C)c1ncccc1N2 (stereo not drawn),TGI,BT-549 breast,> 100 µM
same,TGI,MDA-MB-231 breast,> 100 µM
same,TGI,MDA-MB-435,> 100 µM
same,TGI,MOLT-4 leukemia,> 100 µM
same,TGI,OVCAR-8 ovarian,> 100 µM
same,TGI,RPMI-8226 leukemia,> 100 µM
same,TGI,SK-MEL-28 melanoma,> 100 µM
same,TGI,SK-MEL-5 melanoma,> 100 µM
same,TGI,UACC-257 melanoma,> 100 µM
CCCCCCN(CCCCCC)CCC(=O)c1ccc2cc(Br)c3ccccc3c2c1,TGI,BT-549 breast,51.6 µM
same,TGI,MDA-MB-231 breast,67.4 µM
same,TGI,MDA-MB-435,74.3 µM
same,TGI,OVCAR-8 ovarian,> 100 µM
same,TGI,PC-3 prostate,> 100 µM
same,TGI,RPMI-8226 leukemia,> 100 µM
same,TGI,SK-MEL-28 melanoma,> 100 µM
same,TGI,SK-MEL-5 melanoma,96.1 µM
same,TGI,SN12C renal,> 100 µM
same,TGI,UACC-257 melanoma,> 100 µM
O=C(Cc1ccc2ccccc2c1)NCc1ccc(C(=O)NCCc2ccccc2)cc1,TGI,BT-549 breast,> 100 µM
same,TGI,MDA-MB-231 breast,> 100 µM
same,TGI,MDA-MB-435,> 100 µM
same,TGI,OVCAR-8 ovarian,> 100 µM
same,TGI,PC-3 prostate,> 100 µM
same,TGI,RPMI-8226 leukemia,> 100 µM
same,TGI,SK-MEL-28 melanoma,> 100 µM
same,TGI,SK-MEL-5 melanoma,> 100 µM
same,TGI,SN12C renal,> 100 µM
same,TGI,UACC-257 melanoma,> 100 µM
Cc1ccc2c(c1)nc1n2C(c2c(F)cccc2F)SC1 (stereo not drawn),TGI,MDA-MB-231 breast,> 100 µM
same,TGI,MDA-MB-435,> 100 µM
same,TGI,MOLT-4 leukemia,87.4 µM
same,TGI,OVCAR-8 ovarian,> 100 µM
same,TGI,PC-3 prostate,> 100 µM
same,TGI,RPMI-8226 leukemia,> 100 µM
same,TGI,SK-MEL-28 melanoma,> 100 µM
same,TGI,SN12C renal,> 100 µM
same,TGI,UACC-257 melanoma,> 100 µM
CCn1c(SCC(=O)N/N=C2\SCC(=O)N2c2ccc(C)cc2)nc2ccccc2c1=O,TGI,MDA-MB-231 breast,36.3 µM
same,TGI,MDA-MB-435,43.8 µM
same,TGI,MOLT-4 leukemia,> 100 µM
same,TGI,OVCAR-8 ovarian,35.5 µM
same,TGI,PC-3 prostate,54.2 µM
same,TGI,RPMI-8226 leukemia,52.7 µM
same,TGI,SK-MEL-28 melanoma,48.7 µM
same,TGI,SK-MEL-5 melanoma,50 µM
same,TGI,SN12C renal,50.4 µM
same,TGI,UACC-257 melanoma,35.3 µM
FC1(F)ON2CCc3ccccc3C2[C@H]1c1ccccc1 (stereo partly drawn),TGI,MDA-MB-231 breast,> 100 µM
same,GI50,MDA-MB-435,> 100 µM
same,TGI,MDA-MB-435,> 100 µM
same,GI50,MOLT-4 leukemia,> 100 µM
same,TGI,MOLT-4 leukemia,> 100 µM
same,TGI,OVCAR-8 ovarian,> 100 µM
same,GI50,PC-3 prostate,> 100 µM
same,TGI,PC-3 prostate,> 100 µM
same,GI50,RPMI-8226 leukemia,> 100 µM
same,TGI,RPMI-8226 leukemia,> 100 µM
same,GI50,SK-MEL-28 melanoma,> 100 µM
same,TGI,SK-MEL-28 melanoma,> 100 µM
same,GI50,SK-MEL-5 melanoma,> 100 µM
same,TGI,SK-MEL-5 melanoma,> 100 µM
same,GI50,SN12C renal,> 100 µM
same,TGI,SN12C renal,> 100 µM
same,GI50,UACC-257 melanoma,> 100 µM
same,TGI,UACC-257 melanoma,> 100 µM
C=C(/C=C/C=C(\C)CCC=C(C)C)[C@@H]1CC[C@]2([C@H](CCCO)/C(=C(/C)C=O)CC[C@]2(C)O)[C@@H]1O,TGI,MOLT-4 leukemia,29.3 µM
same,TGI,OVCAR-8 ovarian,46.5 µM
same,TGI,SK-MEL-28 melanoma,28.4 µM
same,TGI,SK-MEL-5 melanoma,53.1 µM
same,TGI,SN12C renal,31.4 µM
same,TGI,UACC-257 melanoma,59.5 µM
COC(=O)CCc1ccc(CCC(=O)OC)cc1,TGI,MDA-MB-231 breast,> 100 µM
same,TGI,MDA-MB-435,> 100 µM
same,TGI,MOLT-4 leukemia,> 100 µM
same,TGI,OVCAR-8 ovarian,> 100 µM
same,TGI,PC-3 prostate,> 100 µM
same,TGI,RPMI-8226 leukemia,> 100 µM
same,TGI,SK-MEL-28 melanoma,> 100 µM
same,TGI,SK-MEL-5 melanoma,> 100 µM
same,TGI,UACC-257 melanoma,> 100 µM
C=C1C2CCC3C4(C)CCCC(C)(C(=O)O)C4CCC3(C2)C1OC(=O)/C(C)=C/C (stereo not drawn),TGI,BT-549 breast,> 100 µM
same,TGI,MDA-MB-231 breast,46.9 µM
same,TGI,MDA-MB-435,> 100 µM
same,TGI,OVCAR-8 ovarian,> 100 µM
same,TGI,PC-3 prostate,> 100 µM
same,TGI,SK-MEL-28 melanoma,> 100 µM
same,TGI,SK-MEL-5 melanoma,75.6 µM
same,TGI,SN12C renal,62.6 µM
same,TGI,UACC-257 melanoma,> 100 µM
O=c1[nH]c(NCc2cccnc2)nc2nc[nH]c12,TGI,BT-549 breast,> 100 µM
same,TGI,MDA-MB-231 breast,> 100 µM
same,TGI,MDA-MB-435,> 100 µM
same,TGI,MOLT-4 leukemia,> 100 µM
same,TGI,OVCAR-8 ovarian,> 100 µM
same,TGI,PC-3 prostate,> 100 µM
same,TGI,RPMI-8226 leukemia,> 100 µM
same,TGI,SK-MEL-5 melanoma,> 100 µM
same,TGI,SN12C renal,> 100 µM
same,TGI,UACC-257 melanoma,> 100 µM
COC(=O)C1=C(C)NC(=O)N2[C@@H](CCOCc3ccccc3)CC[C@@H]12,TGI,MDA-MB-231 breast,> 50 µM
same,TGI,MDA-MB-435,> 50 µM
same,TGI,MOLT-4 leukemia,> 50 µM
same,TGI,OVCAR-8 ovarian,> 50 µM
same,TGI,PC-3 prostate,> 50 µM
same,TGI,RPMI-8226 leukemia,> 50 µM
same,TGI,SK-MEL-28 melanoma,> 50 µM
same,TGI,SK-MEL-5 melanoma,> 50 µM
same,TGI,UACC-257 melanoma,> 50 µM
CC(C)(C)c1ccc2c(c1)OP1(Oc3c(Cl)cc(Cl)c4cccnc34)(O2)Oc2ccc(C(C)(C)C)cc2O1,TGI,MOLT-4 leukemia,18.7 µM
same,TGI,OVCAR-8 ovarian,45.8 µM
same,TGI,RPMI-8226 leukemia,19 µM
same,TGI,SK-MEL-28 melanoma,28.4 µM
same,TGI,SK-MEL-5 melanoma,22.1 µM
same,TGI,SN12C renal,30.8 µM
same,TGI,UACC-257 melanoma,14.2 µM
COc1ccc(C2CC(c3c(O)ccc4ccccc34)=NN2)cc1OC (stereo not drawn),TGI,BT-549 breast,16.1 µM
same,TGI,MDA-MB-231 breast,53.4 µM
same,TGI,MDA-MB-435,11.6 µM
same,TGI,MOLT-4 leukemia,5.44 µM
same,TGI,OVCAR-8 ovarian,17.8 µM
same,TGI,PC-3 prostate,> 100 µM
same,TGI,RPMI-8226 leukemia,65 µM
same,TGI,SK-MEL-5 melanoma,12.6 µM
same,TGI,SN12C renal,32.2 µM
same,TGI,UACC-257 melanoma,20.4 µM
CC(NC(=O)C1CCC(=O)N1)C(=O)N1CCCC1C(N)=O (stereo not drawn) ([pGlu]-Ala-Pro-NH2; configuration not given here),TGI,BT-549 breast,> 100 µM
same,TGI,MDA-MB-231 breast,> 100 µM
same,TGI,MDA-MB-435,> 100 µM
same,TGI,MOLT-4 leukemia,> 100 µM
same,TGI,OVCAR-8 ovarian,> 100 µM
same,TGI,PC-3 prostate,> 100 µM
same,TGI,RPMI-8226 leukemia,> 100 µM
same,TGI,SK-MEL-28 melanoma,> 100 µM
same,TGI,SK-MEL-5 melanoma,> 100 µM
same,TGI,SN12C renal,> 100 µM
S=P1(Sc2ccccc2)Oc2ccc3ccccc3c2-c2c(ccc3ccccc23)O1,TGI,MOLT-4 leukemia,> 100 µM
same,TGI,OVCAR-8 ovarian,> 100 µM
same,TGI,RPMI-8226 leukemia,> 100 µM
same,TGI,SK-MEL-28 melanoma,> 100 µM
same,TGI,SK-MEL-5 melanoma,> 100 µM
same,TGI,SN12C renal,> 100 µM
same,TGI,UACC-257 melanoma,> 100 µM
O=C1c2ccccc2N(O)C1(c1ccccc1)C1CCCC=C1N1CCOCC1 (stereo not drawn),TGI,MOLT-4 leukemia,> 100 µM
same,TGI,OVCAR-8 ovarian,> 100 µM
same,TGI,RPMI-8226 leukemia,> 100 µM
same,TGI,SK-MEL-28 melanoma,> 100 µM
same,TGI,SK-MEL-5 melanoma,> 100 µM
same,TGI,SN12C renal,> 100 µM
same,TGI,UACC-257 melanoma,> 100 µM
COC(=O)C1CCC(=O)N1C(c1ccc(OC)cc1)c1cc(OC)c(OC)c(OC)c1 (stereo not drawn),TGI,BT-549 breast,> 100 µM
same,TGI,MDA-MB-231 breast,64.9 µM
same,TGI,MDA-MB-435,0.243 µM
same,TGI,MOLT-4 leukemia,> 61.1 µM
same,TGI,OVCAR-8 ovarian,> 100 µM
same,TGI,PC-3 prostate,> 37.4 µM
same,TGI,SK-MEL-28 melanoma,> 100 µM
same,TGI,SK-MEL-5 melanoma,3.43 µM
same,TGI,SN12C renal,> 100 µM
same,TGI,UACC-257 melanoma,> 100 µM
c1ccc2c3c(ccc2c1)-c1[nH]ncc1CCO3,TGI,MOLT-4 leukemia,77.5 µM
same,TGI,OVCAR-8 ovarian,> 90.1 µM
same,TGI,SK-MEL-28 melanoma,> 100 µM
same,TGI,SK-MEL-5 melanoma,> 71.3 µM
same,TGI,SN12C renal,> 80.4 µM
same,TGI,UACC-257 melanoma,83.6 µM
Cc1nc2c(c(N3CCN(C)CC3)n1)Cc1ccccc1-2,TGI,BT-549 breast,> 100 µM
same,TGI,MDA-MB-231 breast,> 100 µM
same,TGI,MDA-MB-435,> 100 µM
same,TGI,OVCAR-8 ovarian,> 100 µM
same,TGI,PC-3 prostate,> 100 µM
same,TGI,RPMI-8226 leukemia,> 100 µM
same,TGI,SK-MEL-5 melanoma,> 100 µM
same,TGI,UACC-257 melanoma,> 100 µM
CC(NC1=NCCO1)c1ccccc1Cl (stereo not drawn),TGI,MDA-MB-231 breast,> 100 µM
same,TGI,MDA-MB-435,> 100 µM
same,TGI,MOLT-4 leukemia,> 100 µM
same,TGI,OVCAR-8 ovarian,> 100 µM
same,TGI,PC-3 prostate,> 100 µM
same,TGI,RPMI-8226 leukemia,> 100 µM
same,TGI,SK-MEL-28 melanoma,> 100 µM
same,TGI,SK-MEL-5 melanoma,> 100 µM
same,TGI,SN12C renal,> 100 µM
same,TGI,UACC-257 melanoma,> 100 µM
COC(=O)c1cc2c(c(C(=O)OC)c1)CCC2,TGI,MDA-MB-231 breast,> 100 µM
same,TGI,MDA-MB-435,> 100 µM
same,TGI,MOLT-4 leukemia,> 100 µM
same,TGI,OVCAR-8 ovarian,> 100 µM
same,TGI,PC-3 prostate,> 100 µM
same,TGI,RPMI-8226 leukemia,> 100 µM
same,TGI,SK-MEL-28 melanoma,> 100 µM
same,TGI,SK-MEL-5 melanoma,> 100 µM
same,TGI,UACC-257 melanoma,> 100 µM
CCCCSC1=N/C(=C\c2ccccc2O)C(=O)N1,TGI,BT-549 breast,> 100 µM
same,TGI,MDA-MB-231 breast,> 100 µM
same,TGI,MDA-MB-435,> 100 µM
same,TGI,MOLT-4 leukemia,> 100 µM
same,TGI,OVCAR-8 ovarian,> 100 µM
same,TGI,PC-3 prostate,92.6 µM
same,TGI,RPMI-8226 leukemia,> 100 µM
same,TGI,SK-MEL-28 melanoma,> 100 µM
same,TGI,SN12C renal,> 100 µM
same,TGI,UACC-257 melanoma,> 100 µM
